{
  "source": "patent US4358440A",
  "about": "“Polypeptide and its production and use” (Takeda Chemical Industries, Ltd., priority 1980, dated 1982)",
  "key": {"[1]": {"assay": "analgesic action of the novel peptide", "settings": "result in words; no test described"}, "[2]": {"settings": "result in words"}, "opiate receptor (brain)": {"test_system": "opiate receptor (brain)", "assay": "binding strength with the opiate receptor (brain)", "settings": "for binding strength with the opiate receptor (brain) relative to human beta-endorphin: times greater than human beta-endorphin; for binding activity relative to morphine: times greater than morphine", "protocol": "The above experiment was carried out by the procedure as described in The Journal of Biological Chemistry, Vol. 254, No. 8, p. 2610 (1979)."}, "[3]": {"settings": "rats, intracerebral route; cited from earlier work"}, "[4]": {"settings": "mice, intracerebral route; cited from earlier work"}},
  "note": "Read-outs that look alike come from different tables or passages of the source. Residues, ends and D or L forms follow the SMILES beside them.",
  "data": [
    {"compound": "CC[C@H](C)[C@H](NC(=O)[C@H](Cc1c[nH]cn1)NC(=O)[C@H](CCCCN)NC(=O)[C@H](CC(C)C)NC(=O)[C@H](CC(C)C)NC(=O)[C@@H](NC(=O)[C@@H](NC(=O)[C@H](CC(C)C)NC(=O)[C@@H]1CCCN1C(=O)[C@H](CCCCN)NC(=O)[C@H](Cc1c[nH]cn1)NC(=O)[C@H](CO)NC(=O)[C@H](CCC(N)=O)NC(=O)[C@H](CCCCN)NC(=O)[C@@H](NC(=O)[C@H](Cc1ccc(O)cc1)NC(=O)[C@@H]1CCCN1C(=O)[C@H](CCCCN)NC(=O)[C@H](CCSC)NC(=O)[C@H](Cc1ccccc1)NC(=O)CNC(=O)CNC(=O)[C@@H](N)Cc1ccc(O)cc1)[C@@H](C)O)[C@@H](C)CC)[C@@H](C)O)C(=O)N[C@H](C(=O)N[C@@H](CC(C)C)C(=O)N[C@@H](CCCCN)C(=O)N[C@@H](CC(N)=O)C(=O)N[C@@H](CCC(=O)O)C(=O)N[C@@H](CCC(N)=O)C(=O)O)[C@@H](C)O", "note": "[Compound (I), H-Tyr-Gly-Gly-Phe-Met-Lys-Pro-Tyr-Thr-Lys-Gln-Ser-His-Lys-Pro-Leu-Ile-Thr- Leu-Leu-Lys-His-Ile-Thr-Leu-Lys-Asn-Glu-Gln-OH] (H-YGGFMKPYTKQSHKPLITLLKHITLKNEQ-OH)", "values": [
      {"measurement": "analgesic action", "setting": "[1]", "value": "excellent analgesic action"},
      {"measurement": "toxicity", "setting": "[2]", "value": "very low toxicity"},
      {"measurement": "binding strength with the opiate receptor (brain) relative to human beta-endorphin", "setting": "opiate receptor (brain); with the addition of sodium", "value": "about 3.05 times"},
      {"measurement": "binding activity relative to morphine", "setting": "opiate receptor (brain); with the addition of sodium", "value": "about 3.74 times"},
      {"measurement": "binding strength with the opiate receptor (brain) relative to human beta-endorphin", "setting": "opiate receptor (brain); without the addition of sodium", "value": "about 2.71 times"},
      {"measurement": "binding activity relative to morphine", "setting": "opiate receptor (brain); without the addition of sodium", "value": "about 4.6 times"}
    ]},
    {"compound": "CC[C@H](C)[C@H](NC(=O)[C@H](Cc1c[nH]cn1)NC(=O)[C@H](CCCCN)NC(=O)[C@H](CC(C)C)NC(=O)[C@H](CC(C)C)NC(=O)[C@@H](NC(=O)[C@@H](NC(=O)[C@H](CC(C)C)NC(=O)[C@@H]1CCCN1C(=O)[C@H](CCCCN)NC(=O)[C@H](Cc1c[nH]cn1)NC(=O)[C@H](CO)NC(=O)[C@H](CCC(N)=O)NC(=O)[C@H](CCCCN)NC(=O)[C@@H](NC(=O)[C@H](Cc1ccc(O)cc1)NC(=O)[C@@H]1CCCN1C(=O)[C@H](CCCCN)NC(=O)[C@H](CCSC)NC(=O)[C@H](Cc1ccccc1)NC(=O)CNC(=O)CNC(=O)[C@H](Cc1ccc(O)cc1)NC(C)=O)[C@@H](C)O)[C@@H](C)CC)[C@@H](C)O)C(=O)N[C@H](C(=O)N[C@@H](CC(C)C)C(=O)N[C@@H](CCCCN)C(=O)N[C@@H](CC(N)=O)C(=O)N[C@@H](CCC(=O)O)C(=O)N[C@@H](CCC(N)=O)C(=O)O)[C@@H](C)O", "note": "[salmon endorphin, reference compound] (Ac-YGGFMKPYTKQSHKPLITLLKHITLKNEQ-OH)", "values": [
      {"measurement": "binding to the opiate receptor", "setting": "opiate receptor (brain); result in words", "value": "in no way binds to the opiate receptor"}
    ]},
    {"compound": "beta-endorphin: brain peptide in mammals, a particularly important physiological peptide among the endorphins (YGGFMTSEKSQTPLVTLFKNAIIKNAYKKGE; Beta-endorphin; UniProt P01189 237-267, looked up)", "values": [
      {"measurement": "analgesic effect", "setting": "[3]", "value": "exerts an analgesic effect"},
      {"measurement": "analgesic effect", "setting": "[4]", "value": "exerts an analgesic effect"}
    ]}
  ]
}
